System: Mycobacterium smegmatis
Assay: In vitro Mycobacterium smegmatis growth inhibition assay (suspension turbidity, 96 hours)
Type: cell-based
Settings: for % of Celular Growth at 96 hours: Mycobacterium smegmatis; for inhibitory activity against Mycobacterium smegmatis growth (in words, compared with RMP): compared with the active control RMP; for IC50: concentration to inhibit 50% of Mycobacterium smegmatis growth, four parameter curve fit

Compound	% of Celular Growth at 96 hours (concentration 1.23 μM)	% of Celular Growth at 96 hours (concentration 3.70 μM)	% of Celular Growth at 96 hours (concentration 11.11 μM)	% of Celular Growth at 96 hours (concentration 33.33 μM)	% of Celular Growth at 96 hours (concentration 100.00 μM)	inhibitory activity against Mycobacterium smegmatis growth (in words, compared with RMP)	inhibitory activity against Mycobacterium smegmatis growth (in words, compared with RMP) (listed as N-pyridin-2-yl-N′-5-methyl-2-hydroxyphenylmethylene-hydrazine)	IC50	inhibitory activity against Mycobacterium smegmatis growth (in words, compared with RMP) (listed as compound 42)	inhibitory activity against Mycobacterium smegmatis growth (in words, compared with RMP) (listed as N-pyridin-2-yl-N′-5-bromo-2-hydroxyphenylmethylene-hydrazine)	IC50 (Mycolicibacterium smegmatis)
2-hydroxy-5-methylbenzaldehyde-(2-pyridinyl)hydrazine [Compound 61]	75.35%	69.76%	83.84%	20.08%	24.45%	better IC50 values than RMP	desired pharmacological activity	13.5 µM	–	–	–
3,5-dibromo-2-hydroxybenzaldehyde (2-pyridinyl)hydrazine [Compound 42]	110.06%	104.48%	98.17%	41.52%	31.91%	better IC50 values than RMP	–	15.2 µM	superior inhibitory activity against Mycobacterium smegmatis than the prior art compound RMP	–	–
Oc1ccc(Br)cc1C=NNc1ccccn1 [Compound 70, 5-bromo-2-hydroxybenzaldehyde-2pyridinilhydrazone]	95.9%	96.6%	80.0%	44.2%	38.9%	better IC50 values than RMP	–	13.9 µM	–	desired pharmacological activity	–
CO[C@H]1/C=C/O[C@@]2(C)Oc3c(C)c(O)c4c(O)c(c(/C=N/N5CCN(C)CC5)c(O)c4c3C2=O)NC(=O)/C(C)=C\C=C\[C@H](C)[C@H](O)[C@@H](C)[C@@H](O)[C@@H](C)[C@H](OC(C)=O)[C@@H]1C [Rifampicin, reference compound]	82.55%	81.40%	90.62%	58.04%	22.26%	–	–	–	–	–	24.8 µM
C(=NNc1ccccn1)c1cccs1 [N-pyridin-2-yl-N′-thiophen-2-ylmethylene-hydrazine]	–	–	–	–	–	desired pharmacological activity	–	–	–	–	–

Reference: patent US9593103B2, “Pyridyl hydrazones for the treatment of tuberculosis and related diseases” (TECNIMEDE SOCIEDADE TECNICO-MEDICINAL S.A., priority 2012, dated 2017)
